Assay [1] relates to PI3KC2α, PI3KC2γ, PIP4K2α, PIP5K1α and PIP5K1γ. Put plainly: Selectivity against other lipid kinases. The assay is classed as biochemical. From the text:
Utilizing the crystal structure of PI3Kδ, we designed and synthesized a series of compounds in an effort to discover new potent and selective PI3Kδ inhibitors, which bind to PI3Kδ differently from CAL-101. […] The benzimidazole group of X-370 extends into the affinity pocket, where its nitrogen acts as a hydrogen bond acceptor for the primary amine of Lys779. The difluoromethyl group of X-370 points toward Pro758 in the hydrophobic affinity pocket. Instead of wedging between Met752 and Trp760, a binding mode utilized by CAL-101 to generate specificity against PI3Kδ (Figure S1), the pyrrole group of X-370 presses tightly against Trp760. These specific interactions of X-370 with p110δ confer a selective and potent inhibition of PI3Kδ. As expected, X-370 inhibited the kinase activity of PI3Kδ in an ATP-competitive manner, with IC50 increasing in concert with ATP levels (Figure 1C), confirming the binding of X-370 in the ATP pocket. […] More than 1000-fold selectivity was seen against other lipid kinases tested including PI3KC2α, PI3KC2γ, PIP4K2α, PIP5K1α and PIP5K1γ. […]
Figure 1 Structure of X-370 and its inhibitory activity against lipid kinases (A) Chemical structure of X-370. […] Relative kinase activity in the presence of 10 μM X-370 compared to DMSO control was measured for the rest of lipid kinases. […]

Assay [2] relates to Raji cells. Put plainly: Annexin V-FITC/PI apoptosis assay (FACS). It counts as cell-based, human. The note with it: 72 h. From the text: Figure 3 PI3Kδ inhibition led to blockade of B cell leukemia cells proliferation via induction of cell cycle arrest and apoptosis Raji cells treated with X-370 for indicated times and at serial diluted concentrations were subjected to Annexin V-FITC/PI staining (A) and PI staining (B) and FACS analysis to show cell apoptosis and cell cycle distribution respectively. (C) X-370 inhibited proliferation of human leukemia primary cells. Freshly isolated human primary mononuclear cells from bone marrow samples of patients were treated with X-370 for 72 h and cell viability was assayed using CCK-8 assay. IC50s of each sample were plotted where 10 μM was assigned to specimens with IC50 >10 μM. Each symbol represents an individual patient sample. […]
Apoptosis was measured with annexin V–fluorescein isothiocyanate (FITC) /Propidium iodide (PI) kit (KeyGEN Biotech, Nanjing, China) as previously described. Fluorescence was acquired with a FACSCalibur instrument (BD Biosciences, CA) and analyzed using BD CellQuest Pro software.

Regarding `O=C(N1CCCC1)N1CCC(n2cnc3c(-n4c(C(F)F)nc5ccccc54)nc(N4CCOCC4)nc32)CC1` [X-370], the “selectivity for PI3Kδ against other lipid kinases” value in assay [1] is “More than 1000 fold”. Further, the “cells that underwent apoptosis” value in assay [2] (10 μM) is “about 28%”. The “concentration at which apoptotic cells were detectable” value in assay [2] is at least 5 µM.
